Laboratory results taken from patent publication US12624057B2, “Bisphosphonate quinolone conjugates and uses thereof” (BIOVINC, LLC, priority 2016, dated 2026).

Tests used:
[1] = In vivo tolerability during the rat peri-implant osteomyelitis studies; parameters: species or system Sprague-Dawley rats; conditions: intraperitoneal
Description: To determine appropriate dosing concentrations, we calculated approximate initial doses for the conjugate based on previous studies and pharmacokinetic data using similar target and release strategies and also rodents (Houghton, et al., Linking bisphosphonates to the free amino groups in fluoroquinolones: preparation of osteotropic prodrugs for the prevention of osteomyelitis. J Med Chem 2008; 51:6955-69; Morioka, et al., Design, synthesis, and biological evaluation of novel estradiol-bisphosphonate conjugates as bone-specific estrogens. Bioorg Med Chem 2010; 18:1143-8). We expected that increasing doses of 0.1, 1 and 10 mg/kg BP-ciprofloxacin molar equivalents will allow us to determine antimicrobial activity in 2 test animals per group based on sample size estimations and previous experience with the animal model (Freire, et al, Development of animal model for Aggregatibacter actinomycetemcomitans biofilm-mediated oral osteolytic infection: a preliminary study. J Periodontol 2011; 82:778-89). Animals were dosed via intraperitoneal injection under general anesthesia, and all compounds were constituted in sterile physiological injectable saline at appropriate pH. One week after pharmacotherapy, all animals were sacrificed and resection of peri-implant tissues was performed, and tissues were immediately homogenized and processed for quantitative assessment of microbial load. Animals were monitored throughout the study period for local or systemic adverse effects of pharmacotherapy.
To determine appropriate dosing concentrations, approximate initial doses were calculated for the conjugate based on previous studies and pharmacokinetic data using similar target and release strategies also in rodents.^13, 26 Increasing doses of 0.1, 1 and 10 mg/kg molar equivalents of 6 can allow for determination of antimicrobial activity in 2 test animals per group based on sample size estimations and previous experience with the animal model.^32 Animals were dosed via intraperitoneal injection under general anesthesia, and all compounds were constituted in sterile physiological injectable saline at appropriate pH.

[2] = tested on: biofilms of P. aeruginosa strain ATCC-15442; assay: Preformed biofilms on polystyrene, P. aeruginosa; type: cell-based, Pseudomonas aeruginosa; conditions: polystyrene substrate, tested range of concentrations
Description: Antimicrobial susceptibility testing of BP-ciprofloxacin against preformed biofilms of S. aureus strain ATCC-6538 and P. aeruginosa strain ATCC-15442: Strains cultured on appropriate agar plates (Columbia agar plate for S. aureus; MacConkey agar plate for P. aeruginosa) were transferred to liquid microbiological media and incubated for 24 h/37° C. under aerobic conditions. After incubation, strains were diluted to the density of 1 MF. The microbial dilutions were introduced to wells of 24-well plates containing HA discs as a substrate, or simply to polystyrene wells where the bottom surface of the wells served as the substrate for biofilm development. Strains were incubated at 37° C. for 4 hrs. Next, the microbe-containing solutions were removed from the wells. The surfaces, HA discs and polystyrene plates, were gently rinsed to leave adhered cells and to remove planktonic or loosely-bound microbes. Surfaces prepared in this manner were immersed in fresh TSB medium containing 0.24-125 mg/L of BP-ciprofloxacin conjugate. After 24 hrs of incubation at 37° C. the surfaces were rinsed using physiological saline solution and transferred to 1 mL of 0.5% saponin (Sigma-Aldrich, St Louis, MO). The surfaces were vortex-mixed vigorously for 1 minute to detach cells. Subsequently, all microbial suspensions were diluted 10 to 10^9 times. Each dilution ([…]) was cultured on the appropriate stable medium (MacConkey, Columbia for P. aeruginosa and S. aureus, respectively) and incubated at 37-C for 24 hours. After this time, the microbial colonies were counted and the number of cells forming biofilm was assessed. […]
Antimicrobial susceptibility testing of 6 against preformed biofilms of S. aureus strain ATCC-6538 and P. aeruginosa strain ATCC-15442: Strains cultured on appropriate agar plates (Columbia agar plate for S. aureus; MacConkey agar plate for P. aeruginosa) were transferred to liquid microbiological media and incubated for 24 hrs/37° C. under aerobic conditions. […] After this time, the microbial colonies were counted and the number of cells forming biofilm was assessed. […]

[3] = tested on: biofilms of Aggregatibacter actinomycetemcomitans grown on HA; assay: Aa biofilms grown on HA; type: cell-based

O=C(O)c1cn(C2CC2)c2cc(N3CCN(C(=O)Oc4ccc(CC(P(=O)(O)O)P(=O)(O)O)cc4)CC3)c(F)cc2c1=O [Compound 6, 1-cyclopropyl-7-(4-((4-(2,2-diphosphonoethyl)phenoxy)carbonyl)piperazin-1-yl)-6-fluoro-4-oxo-1,4-dihydroquinoline-3-carboxylic acid]
tolerability / adverse events ([1]; first animal experiment, listed as BCC): no potential systemic toxicity or adverse effects | tolerability / adverse events ([1]; first animal experiment, listed as BP-ciprofloxacin): safety and efficacy was demonstrated in vivo | tolerability / adverse events ([1]; second animal experiment): no signs of gross tolerability issues during therapy | tolerability / adverse events ([1]; second animal experiment, listed as BCC): tolerated treatment and pharmacotherapy well with no adverse events | MBIC50 [2]: No MBIC50 was observed | MBIC90 [2]: no MBIC90 was observed for either pathogen | MBIC50 ([2]; listed as BP-ciprofloxacin): no MBIC^50 was observed | activity against Aa biofilm on HA (in words) [3]: effective antimicrobial activity | concentration with effective antimicrobial profile ([3]; strain D7S-5 grown on HA): > 15 µg/mL
